The assay concerns the target wild-type un-phosphorylated FGFR3 protein (Homo sapiens, UniProt P22607). Description: FGFR Enzymatic Assay (FRET peptide phosphorylation).
Sequence of wild-type un-phosphorylated FGFR3 protein (P22607 23-806): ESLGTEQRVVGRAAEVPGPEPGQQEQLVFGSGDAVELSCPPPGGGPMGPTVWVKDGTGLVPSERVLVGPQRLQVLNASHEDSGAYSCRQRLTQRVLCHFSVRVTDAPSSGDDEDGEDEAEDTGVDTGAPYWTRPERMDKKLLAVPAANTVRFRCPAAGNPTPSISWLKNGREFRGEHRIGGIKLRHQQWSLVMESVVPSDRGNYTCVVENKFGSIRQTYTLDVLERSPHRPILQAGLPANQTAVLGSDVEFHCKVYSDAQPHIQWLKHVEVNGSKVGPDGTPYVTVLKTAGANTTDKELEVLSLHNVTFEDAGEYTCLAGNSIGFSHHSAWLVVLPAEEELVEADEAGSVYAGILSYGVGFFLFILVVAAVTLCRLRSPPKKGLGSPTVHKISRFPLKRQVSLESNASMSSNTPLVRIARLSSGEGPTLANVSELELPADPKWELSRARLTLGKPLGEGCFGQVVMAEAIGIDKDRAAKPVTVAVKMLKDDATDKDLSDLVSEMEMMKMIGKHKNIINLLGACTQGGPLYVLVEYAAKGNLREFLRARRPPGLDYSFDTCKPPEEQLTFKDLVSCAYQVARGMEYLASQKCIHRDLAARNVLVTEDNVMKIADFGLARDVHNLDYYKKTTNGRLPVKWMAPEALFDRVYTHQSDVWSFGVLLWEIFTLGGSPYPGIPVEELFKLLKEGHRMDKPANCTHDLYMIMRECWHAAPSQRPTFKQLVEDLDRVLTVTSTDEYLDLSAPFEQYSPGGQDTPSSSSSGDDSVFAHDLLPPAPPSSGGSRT
Method: The inhibitor potency of the exemplified compounds was determined in an enzyme discontinuous assay that measures peptide phosphorylation using FRET measurements to detect product formation. Inhibitors were serially diluted in DMSO and a volume of 0.2 μL was transferred to the wells of a 384-well plate. A 5 μL/well volume of enzyme isoforms of FGFR (-1, -2, -3 wild-type and mutant isoforms, -4) including phosphorylated and un-phosphorylated proteins diluted in assay buffer (50 mM HEPES, 10 mM MgCl2, 1 mM EGTA, 0.01% Tween-20, 5 mM DTT, pH 7.5) was added to the plate and pre-incubated with inhibitor for 5 to 15 minutes at ambient temperature. Appropriate controls (enzyme blank and enzyme with no inhibitor) were included on the plate. The reaction was initiated by the addition of a 5 μL/well volume containing both biotinylated [sequence] peptide substrate (SEQ ID NO: 1) and ATP in assay buffer. The 10 μL/well reaction concentration of the peptide substrate was 500 nM whereas the ATP concentration was maintained near or below the ATP Km. The ATP Km values were pre-determined in a separate series of experiments. The reaction plate was incubated at 25° C. for 1 hr and the reactions were ended with the addition of 5 μL/well of quench solution (50 mM Tris, 150 mM NaCl, 0.5 mg/mL BSA, pH 7.8; 45 mM EDTA, 600 nM staurosporin, with Perkin Elmer Lance Reagents at 3.75 nM Eu-antibody PY20 and 180 nM APC-Streptavidin). The plate was allowed to equilibrate for ˜10 minutes at ambient temperature before scanning on a PheraStar plate reader (BMG Labtech) instrument.
Either GraphPad prism or XLfit was used to analyze the data. The IC50 values were derived by fitting the data to a four parameter logistic equation producing a sigmoidal dose-response curve with a variable Hill coefficient. Prism equation: Y=Bottom+(Top−Bottom)/(1+10^((Log IC50−X)*Hill slope)); XLfit equation: Y=(A+((B−A)/(1+((X/C)^D)))) where X is the logarithm of inhibitor concentration and Y is the response.
Turning to `NC(=O)c1cnc2c3cc(-c4cnn(C5CCOCC5)c4)cnc3ccn12` [Example 58, 9-(1-(Tetrahydro-2H-pyran-4-yl)-1H-pyrazol-4-yl)imidazo[2,1-f][1,6]naphthyridine-3-carboxamide], the IC50 lay in the range of 10 to 50 nM.

`CC(C#N)n1cc(-c2cnc3ccn4c(C(N)=O)c(-c5c(Cl)cccc5Cl)nc4c3c2)cn1` (centres unmarked) [Example 27, 9-(1-(1-Cyanoethyl)-1H-pyrazol-4-yl)-2-(2,6-dichlorophenyl)imidazo[2,1-f][1,6]naphthyridine-3-carboxamide] gave an IC50 of under 0.1 nM.

Turning to `CC(=O)N1CCN(c2ccc(-c3cnc4ccn5c(C(N)=O)c(-c6c(Cl)cccc6Cl)nc5c4c3)cc2)CC1` [Example 17, 9-(4-(4-Acetylpiperazin-1-yl)phenyl)-2-(2,6-dichlorophenyl)imidazo[2,1-f][1,6]naphthyridine-3-carboxamide], the IC50 is under 0.1 nM.

In turn, `CC(C)(C#N)n1cc(-c2cnc3ccn4c(C(N)=O)c(-c5c(Cl)cccc5Cl)nc4c3c2)cn1` [Example 31, 9-(1-(2-Cyanopropan-2-yl)-1H-pyrazol-4-yl)-2-(2,6-dichlorophenyl)imidazo[2,1-f][1,6]naphthyridine-3-carboxamide] had a concentration for half-maximal inhibition (IC50) of under 0.1 nM.

Consider `CN(C)CCCn1cc(-c2cnc3ccn4c(C(N)=O)c(-c5c(Cl)cccc5Cl)nc4c3c2)cn1` [Example 37, 2-(2,6-Dichlorophenyl)-9-(1-(3-(dimethylamino)propyl)-1H-pyrazol-4-yl)imidazo[2,1-f][1,6]naphthyridine-3-carboxamide], for which the IC50 is under 0.1 nM.

For the compound `NC(=O)c1c(-c2c(Cl)cccc2Cl)nc2c3cc(-c4cnn(CC(F)F)c4)cnc3ccn12` [Example 28, 2-(2,6-Dichlorophenyl)-9-(1-(2,2-difluoroethyl)-1H-pyrazol-4-yl)imidazo[2,1-f][1,6]naphthyridine-3-carboxamide], the IC50 is under 0.1 nM.

`NC(=O)c1c(-c2c(Cl)cccc2Cl)nc2c3cc(-c4cnn(Cc5ncccn5)c4)cnc3ccn12` [Example 15, 2-(2,6-Dichlorophenyl)-9-(1-(pyrimidin-2-ylmethyl)-1H-pyrazol-4-yl)imidazo[2,1-f][1,6]naphthyridine-3-carboxamide] returned an IC50 of under 0.1 nM.

`CC(C)(O)c1ccc(-c2cnc3ccn4c(C(N)=O)c(-c5c(Cl)cccc5Cl)nc4c3c2)cn1` [Example 50, 2-(2,6-Dichlorophenyl)-9-(6-(2-hydroxypropan-2-yl)pyridin-3-yl)imidazo[2,1-f][1,6]naphthyridine-3-carboxamide] came in with an IC50 of 0.1 to 1 nM.

On to `CN(C)CCn1cc(-c2cnc3ccn4c(C(N)=O)c(-c5c(Cl)cccc5Cl)nc4c3c2)cn1` [Example 34, 2-(2,6-Dichlorophenyl)-9-(1-(2-(dimethylamino)ethyl)-1H-pyrazol-4-yl)imidazo[2,1-f][1,6]naphthyridine-3-carboxamide], for which the half-maximal inhibitory concentration (IC50) was under 0.1 nM.

`Cc1nc2c3cc(-c4cnn(C5CCOCC5)c4)cnc3ccn2c1C(N)=O` [Example 57, 2-Methyl-9-(1-(tetrahydro-2H-pyran-4-yl)-1H-pyrazol-4-yl)imidazo[2,1-f][1,6]naphthyridine-3-carboxamide] came in with an IC50 of 10 to 50 nM.

The compound `CC(=O)N1CCN(Cc2ccc(-c3cnc4ccn5c(C(N)=O)c(-c6c(Cl)cccc6Cl)nc5c4c3)cc2)CC1` [Example 19, 9-(4-((4-Acetylpiperazin-1-yl)methyl)phenyl)-2-(2,6-dichlorophenyl)imidazo[2,1-f][1,6]naphthyridine-3-carboxamide] came in with a 50% inhibitory concentration (IC50) of under 0.1 nM.

In the case of `CS(=O)(=O)CCn1cc(-c2cnc3ccn4c(C(N)=O)c(-c5c(Cl)cccc5Cl)nc4c3c2)cn1` [Example 26, 2-(2,6-Dichlorophenyl)-9-(1-(2-(methylsulfonyl)ethyl)-1H-pyrazol-4-yl)imidazo[2,1-f][1,6]naphthyridine-3-carboxamide], the IC50 is under 0.1 nM.

In turn, `CN1CCC(n2cc(-c3cnc4ccn5c(C(N)=O)c(-c6c(Cl)cccc6Cl)nc5c4c3)cn2)CC1` [Example 29, 2-(2,6-Dichlorophenyl)-9-(1-(1-methylpiperidin-4-yl)-1H-pyrazol-4-yl)imidazo[2,1-f][1,6]naphthyridine-3-carboxamide] yielded a concentration for half-maximal inhibition (IC50) of under 0.1 nM.

`NC(=O)c1c(-c2c(Cl)cccc2Cl)nc2c3cc(-c4cnn(Cc5ccccc5)c4)cnc3ccn12` [Example 25, 9-(1-Benzyl-1H-pyrazol-4-yl)-2-(2,6-dichlorophenyl)imidazo[2,1-f][1,6]naphthyridine-3-carboxamide] showed an IC50 of 0.1 to 1 nM.

On to `NC(=O)c1c(-c2c(Cl)cccc2Cl)nc2c3cc(-c4cnn(Cc5ccncn5)c4)cnc3ccn12` [Example 11, 2-(2,6-Dichlorophenyl)-9-(1-(pyrimidin-4-ylmethyl)-1H-pyrazol-4-yl)imidazo[2,1-f][1,6]naphthyridine-3-carboxamide], for which the IC50 is under 0.1 nM.

With `CN1CCN(c2ccc(-c3cnc4ccn5c(C(N)=O)c(-c6c(Cl)cccc6Cl)nc5c4c3)cc2)CC1` [Example 21, 2-(2,6-Dichlorophenyl)-9-(4-(4-methylpiperazin-1-yl)phenyl)imidazo[2,1-f][1,6]naphthyridine-3-carboxamide], the IC50 is under 0.1 nM.

Consider `NC(=O)c1c(-c2c(Cl)cccc2Cl)nc2c3cc(-c4ccc(CN5CCN(C(=O)CO)CC5)cc4)cnc3ccn12` [Example 20, 2-(2,6-Dichlorophenyl)-9-(4-((4-(2-hydroxyacetyl)piperazin-1-yl)methyl)phenyl)imidazo[2,1-f][1,6]naphthyridine-3-carboxamide], for which the IC50 lay within 0.1 to 1 nM.

The compound `NC(=O)c1c(-c2c(Cl)cccc2Cl)nc2c3cc(-c4ccc(C(=O)N5C[C@@H]6C[C@H]5CO6)cc4)cnc3ccn12` [Example 22, 9-(4-((1S,4S)-2-Oxa-5-azabicyclo[2.2.1]heptane-5-carbonyl)phenyl)-2-(2,6-dichlorophenyl)imidazo[2,1-f][1,6]naphthyridine-3-carboxamide] displayed an IC50 of under 0.1 nM.

In turn, `NC(=O)c1c(-c2c(Cl)cccc2Cl)nc2c3cc(-c4cnn(C5CCOCC5)c4)cnc3ccn12` [Example 24, 2-(2,6-Dichlorophenyl)-9-(1-(tetrahydro-2H-pyran-4-yl)-1H-pyrazol-4-yl)imidazo[2,1-f][1,6]naphthyridine-3-carboxamide] returned an IC50 of 0.1 to 1 nM.

The compound `CC(C)(O)Cn1cc(-c2cnc3ccn4c(C(N)=O)c(-c5c(Cl)cccc5Cl)nc4c3c2)cn1` [Example 2, 2-(2,6-Dichlorophenyl)-9-(1-(2-hydroxy-2-methylpropyl)-1H-pyrazol-4-yl)imidazo[2,1-f][1,6]naphthyridine-3-carboxamide] registered a concentration for half-maximal inhibition (IC50) of under 0.1 nM.

In turn, `CC(C)(O)c1cncc(-c2cnc3ccn4c(C(N)=O)c(-c5c(Cl)cccc5Cl)nc4c3c2)c1` [Example 42, 2-(2,6-Dichlorophenyl)-9-(5-(2-hydroxypropan-2-yl)pyridin-3-yl)imidazo[2,1-f][1,6]naphthyridine-3-carboxamide] yielded a 50% inhibitory concentration (IC50) of 1 to 10 nM.

Compound `NC(=O)c1c(-c2c(Cl)cccc2Cl)nc2c3cc(-c4ccc(N5CCN(C(=O)CO)CC5)cc4)cnc3ccn12` [Example 18, 2-(2,6-Dichlorophenyl)-9-(4-(4-(2-hydroxyacetyl)piperazin-1-yl)phenyl)imidazo[2,1-f][1,6]naphthyridine-3-carboxamide] returned an IC50 of under 0.1 nM.

`CC(c1ccnc(C#N)c1)n1cc(-c2cnc3ccn4c(C(N)=O)c(-c5c(Cl)cccc5Cl)nc4c3c2)cn1` (centres unmarked) [Example 12, 9-(1-(1-(2-Cyanopyridin-4-yl)ethyl)-1H-pyrazol-4-yl)-2-(2,6-dichlorophenyl)imidazo[2,1-f][1,6]naphthyridine-3-carboxamide]: the IC50 fell in the range of 0.1 to 1 nM.

As a reminder, the IC50 is the concentration that inhibits the measured activity by half. A higher IC50 goes with weaker potency in that assay.

Source of the values: patent publication US11939331B2, “Tricyclic heterocycles as FGFR inhibitors” (Incyte Corporation, priority 2021, dated 2024).
